Literature values, collected in US20050171374A1, “Preparation of levulinic acid esters from alpha-angelica lactone and olefins; use of ester compositions as fuel additives” (priority 2004, published 2005).
Where a name gives a salt, the structure may show the parent alone.

Assays:
[1] = for Lower Heating Value [2]: reference [2] Walters, molar group contributions; for Lower Heating Value [1]: reference [1] DIPPR, cells marked [3] from DOE/EIA report
[2] = reference [1] DIPPR
[3] = reference [1] DIPPR; remark: listed apart in the source

Row | Lower Heating Value [2] [1] [Btu/lb] | Vapor Press. (100° F.) [1] [2] [KPa] | Flash Point [1] [3] [°C] | SMILES | Lower Heating Value [1] [1]
1 | 12010 | – | – | CC(=O)CCC(=O)OC(C)(C)C [Tert-Butyl Levulinate] | –
2 | 10617 | 12.1 | 0.85 | CCC(C)OC=O (stereo not shown) [Sec-Butyl Formate] | –
3 | 13912 | – | – | CCCOC(=O)CCC(C)=O [N-Propyl Levulinate] | –
4 | 14909 | – | – | CCCCCOC(=O)CCC(C)=O [Amyl Levulinate] | –
5 | 12797 | 10.2 | 3.85 | CC(C)COC=O [Isobutyl Formate] | 11377 Btu/lb
6 | 12477 | 16 | 12.85 | CCO [Ethanol, reference compound] | 11500[3] Btu/lb
7 | 11722 | – | – | CCOC(=O)CCC(C)=O [Ethyl Levulinate] | –
8 | 10969 | – | – | CC(=O)CCC(=O)OC(C)C [Isopropyl Levulinate] | –
9 | 13041 | – | – | CC(=O)CCC(=O)OCC(C)C [Isobutyl Levulinate] | –
10 | 12304 | – | −6 | CC(C)OC=O [Isopropyl Formate] | –

Continued, compound first:

Row | SMILES | Lower Heating Value [2] [1] [Btu/lb] | Vapor Press. (100° F.) [1] [2] [KPa] | Flash Point [1] [3] [°C] | Lower Heating Value [1] [1]
11 | CCOC=O [Ethyl Formate] | 10139 | 55 | −20 | 8751 Btu/lb
12 | CCCOC=O [N-Propyl Formate] | 11792 | 19.9 | −3.15 | 9964 Btu/lb
13 | COC(=O)CCC(C)=O [Methyl Levulinate] | 10773 | – | – | –
14 | CCC(C)OC(=O)CCC(C)=O (stereo not shown) [Sec-Butyl Levulinate] | 11748 | – | – | –
15 | CCCCCOC=O [Amyl Formate Ester] | 13905 | 2.5 | 26.85 | 12274 Btu/lb
16 | COC=O [Methyl Formate] | 7711 | 126.2 | −19.15 | 6393 Btu/lb
17 | CC(=O)CCC(=O)OCCC(C)C [Isoamyl Levulinate] | 13605 | – | – | –
18 | COC(C)(C)C [MTBE, methyl tertiary-butyl ether, reference compound] | 16578 | 55 | −28.15 | 15100[3] Btu/lb
19 | CCCCOC=O [N-Butyl Formate] | 15175 | 7.4 | 18 | 11415 Btu/lb
20 | CC(C)(C)OC=O [Tert-Butyl Formate] | 12873 | 19.8 | −9 | 11277 Btu/lb
21 | CO [Methanol, reference compound] | 8950 | 32 | 10.85 | 8570 Btu/lb
22 | CCCCOC(=O)CCC(C)=O [N-Butyl Levulinate] | 14451 | – | – | –
